The structures appear in SMILES notation. Where only a bound is given, the exact number is not on record here.

Sequence of Beta-secretase 1 (P56817 whole entry): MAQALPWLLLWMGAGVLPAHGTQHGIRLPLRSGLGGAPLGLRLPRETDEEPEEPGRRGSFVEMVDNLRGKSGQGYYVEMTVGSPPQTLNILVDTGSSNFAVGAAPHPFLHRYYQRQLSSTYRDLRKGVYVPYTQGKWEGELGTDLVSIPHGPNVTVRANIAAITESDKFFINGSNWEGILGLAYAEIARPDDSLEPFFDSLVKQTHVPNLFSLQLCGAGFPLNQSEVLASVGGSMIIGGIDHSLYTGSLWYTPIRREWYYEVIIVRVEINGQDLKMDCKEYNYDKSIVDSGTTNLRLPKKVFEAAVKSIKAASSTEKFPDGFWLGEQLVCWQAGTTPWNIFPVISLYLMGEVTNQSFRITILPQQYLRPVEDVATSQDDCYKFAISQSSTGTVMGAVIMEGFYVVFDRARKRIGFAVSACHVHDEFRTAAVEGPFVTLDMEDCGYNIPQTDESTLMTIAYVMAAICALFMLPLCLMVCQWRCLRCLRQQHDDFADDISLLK

The test concerns the target Beta-secretase 1 (Homo sapiens, UniProt P56817). The test is described as follows: Inhibition of human brain BACE1 expressed in Escherichia coli BL21(DE) by TRF assay.
A word on the IC50: it is the concentration at which inhibition is half-maximal. A lower IC50 goes with higher potency. `COc1ccc(COC[C@@H](C[C@H](O)[C@H](COc2cc(F)cc(F)c2)NC(=O)c2cc(C(=O)N[C@H](C)c3ccccc3)cc(N(C)S(C)(=O)=O)c2)OC)cc1` returned an IC50 of 140 nM.

In turn, `COC[C@@H](C[C@H](O)[C@H](COc1cc(F)cc(F)c1)NC(=O)c1cc(C(=O)N[C@H](C)c2ccccc2)cc(N(C)S(C)(=O)=O)c1)OC` had an IC50 of more than 10000 nM.

As for `CO[C@@H](COC(C)C)C[C@H](O)[C@H](COc1cc(F)cc(F)c1)NC(=O)c1cc(C(=O)N[C@H](C)c2ccccc2)cc(N(C)S(C)(=O)=O)c1`, inhibition was half-maximal at 480 nM (IC50).

Compound `CO[C@@H](COCc1ccccc1)C[C@H](O)[C@H](COc1cc(F)cc(F)c1)NC(=O)c1cc(C(=O)N[C@H](C)c2ccccc2)cc(N(C)S(C)(=O)=O)c1` came in with an IC50 of 240 nM. Against the preceding compound, the IC50 is about 2-fold lower.

Compound `CO[C@@H](COc1ccccc1)C[C@H](O)[C@H](COc1cc(F)cc(F)c1)NC(=O)c1cc(C(=O)N[C@H](C)c2ccccc2)cc(N(C)S(C)(=O)=O)c1` gave an IC50 of 6500 nM.

For the compound `CO[C@@H](CNCc1ccccc1)C[C@@H](O)[C@H](COc1cc(F)cc(F)c1)NC(=O)c1cc(C(=O)N[C@H](C)c2ccccc2)cc(N(C)S(C)(=O)=O)c1`, the IC50 was more than 10000 nM.

`COc1ccc(COC[C@@H](C[C@H](O)[C@H](COc2cc(F)cc(F)c2)NC(=O)c2cc(N(C)C[C@H]3C[C@@H]3C)nc(N(C)S(C)(=O)=O)c2)OC)cc1` returned an IC50 of 1800 nM. In other words, the single-digit micromolar range.

On to `CCc1cn2c3c(ccc(C(=O)N[C@@H](COc4cc(F)cc(F)c4)[C@@H](O)C[C@H](COCc4ccc(OC)cc4)OC)c13)N(C)S(=O)(=O)CC2`, for which inhibition was half-maximal at 1500 nM (IC50).

As to `CO[C@@H](CO)C[C@H](O)[C@H](COc1cc(F)cc(F)c1)NC(=O)c1cc(C(=O)N[C@H](C)c2ccccc2)cc(N(C)S(C)(=O)=O)c1`, the IC50 is more than 10000 nM.

For `CO[C@@H](COCC1CC1)C[C@H](O)[C@H](COc1cc(F)cc(F)c1)NC(=O)c1cc(C(=O)N[C@H](C)c2ccccc2)cc(N(C)S(C)(=O)=O)c1`, the IC50 turned out to be 1860 nM.

The compound `CO[C@@H](CNc1ccccc1)C[C@H](O)[C@H](COc1cc(F)cc(F)c1)NC(=O)c1cc(C(=O)N[C@H](C)c2ccccc2)cc(N(C)S(C)(=O)=O)c1` registered an IC50 of 1500 nM.

Regarding `C=CCOC[C@@H](C[C@H](O)[C@H](COc1cc(F)cc(F)c1)NC(=O)c1cc(C(=O)N[C@H](C)c2ccccc2)cc(N(C)S(C)(=O)=O)c1)OC`, the IC50 came to 2030 nM.

As to `CO[C@@H](COCc1ccc(F)cc1)C[C@H](O)[C@H](COc1cc(F)cc(F)c1)NC(=O)c1cc(C(=O)N[C@H](C)c2ccccc2)cc(N(C)S(C)(=O)=O)c1`, the IC50 is more than 10000 nM.

`COc1cccc(COC[C@@H](C[C@H](O)[C@H](COc2cc(F)cc(F)c2)NC(=O)c2cc(C(=O)N[C@H](C)c3ccccc3)cc(N(C)S(C)(=O)=O)c2)OC)c1` showed an IC50 of more than 10000 nM.

`CO[C@@H](CNc1ccc(F)cc1)C[C@H](O)[C@H](COc1cc(F)cc(F)c1)NC(=O)c1cc(C(=O)N[C@H](C)c2ccccc2)cc(N(C)S(C)(=O)=O)c1` had an IC50 of 1500 nM.

`CO[C@@H](CNCc1ccccc1)C[C@H](O)[C@H](COc1cc(F)cc(F)c1)NC(=O)c1cc(C(=O)N[C@H](C)c2ccccc2)cc(N(C)S(C)(=O)=O)c1`: the IC50 was more than 10000 nM.

The record behind these values is ChEMBL document CHEMBL1154749, “P2'-truncated BACE-1 inhibitors with a novel hydroxethylene-like core” (Eur J Med Chem, 2010).
